Reference: DBAASP
In brackets after ≈: the same amount, converted by molar mass.

Tests used:
Experiment in all cases: ≥ marks a high value that may be exact or a test limit, other limits are often not marked, values filed in µg/mL are converted to µM
[1] = system: Candida albicans NCYC 1467
[2] = system: Enterococcus faecalis NCTC 12697
[3] = system: Escherichia coli NCTC 10418
[4] = system: Pseudomonas aeruginosa ATCC 27853
[5] = system: Staphylococcus aureus NCTC 10788
[6] = system: Staphylococcus aureus NCTC 12493
[7] = system: Pseudomonas aeruginosa H1001

CSCC[C@H](NC(=O)[C@H](CC(=O)O)NC(=O)[C@@H](NC(=O)[C@@H](NC(=O)[C@H](C)NC(=O)[C@H](CC(N)=O)NC(=O)[C@H](CC(C)C)NC(=O)[C@H](C)NC(=O)[C@H](C)NC(=O)[C@H](CCCCN)NC(=O)CNC(=O)[C@H](C)NC(=O)[C@H](C)NC(=O)[C@H](CCCCN)NC(=O)CNC(=O)[C@@H](NC(=O)[C@H](CC(N)=O)NC(=O)[C@H](CCCCN)NC(=O)[C@H](CC(C)C)NC(=O)[C@H](CC(C)C)NC(=O)[C@H](CO)NC(=O)[C@H](CCCCN)NC(=O)[C@H](Cc1c[nH]c2ccccc12)NC(=O)[C@H](CC(C)C)NC(=O)[C@H](C)N)C(C)C)C(C)C)[C@@H](C)O)C(=O)N[C@H](C(=O)N[C@@H](CC(N)=O)C(=O)N[C@@H](CCC(N)=O)C(N)=O)C(C)C [ALWKSLLKNVGKAAGKAALNAVTDMVNQ]
MIC [1]: 4 µM (≈ 11.6 µg/mL)
MIC [2]: ≥ 64 µM
MIC [3]: 4 µM (≈ 11.6 µg/mL)
MIC [4]: 4 µM (≈ 11.6 µg/mL)
MIC [5]: 4 µM (≈ 11.6 µg/mL)
MIC [6]: 4 µM (≈ 11.6 µg/mL)

CC[C@H](C)[C@H](NC(=O)CNC(=O)CNC(=O)[C@H](C)NC(=O)[C@@H](NC(=O)[C@H](CCCCN)NC(=O)[C@@H]1CCCN1C(=O)[C@@H](NC(=O)[C@H](CC(C)C)NC(=O)[C@H](CO)NC(=O)[C@H](CC(C)C)NC(=O)[C@@H](N)Cc1ccccc1)[C@@H](C)CC)[C@@H](C)CC)C(=O)N[C@@H](C)C(=O)N[C@@H](C)C(=O)N[C@@H](CC(C)C)C(=O)N[C@@H](C)C(=O)N[C@@H](CCCCN)C(=O)N[C@@H](Cc1cnc[nH]1)C(=O)N[C@@H](CC(C)C)C(N)=O [FLSLIPKIAGGIAALAKHL]
MIC [1]: 2.07 µM (≈ 4 µg/mL)
MIC [2]: 16.6 µM (≈ 32 µg/mL)
MIC [3]: 16.6 µM (≈ 32 µg/mL)
MIC [5]: 4.14 µM (≈ 8 µg/mL)
MIC [6]: 4.14 µM (≈ 8 µg/mL)

CC[C@H](C)[C@H](NC(=O)[C@H](CCCCN)NC(=O)[C@H](CCCCN)NC(=O)[C@H](Cc1cnc[nH]1)NC(=O)[C@@H](NC(=O)[C@H](CCCN=C(N)N)NC(=O)[C@H](CS)NC(=O)[C@H](CC(C)C)NC(=O)[C@H](CC(C)C)NC(=O)[C@@H](N)CCCCN)C(C)C)C(=O)O [KLLCRVHKKI]
MIC [7]: ≥ 40.4 µM

NCCCC[C@H](NC(=O)[C@H](CCCCN)NC(=O)[C@H](Cc1c[nH]c2ccccc12)NC(=O)[C@H](CCCCN)NC(=O)[C@H](Cc1c[nH]c2ccccc12)NC(=O)[C@H](Cc1c[nH]c2ccccc12)NC(=O)[C@H](CCCCN)NC(=O)[C@H](Cc1c[nH]c2ccccc12)NC(=O)[C@@H](N)CCCCN)C(N)=O [KWKWWKWKK]
MIC [7]: ≥ 89 µM

CC[C@H](C)[C@H](NC(=O)[C@H](CCCN=C(N)N)NC(=O)[C@H](CCCN=C(N)N)NC(=O)[C@@H]1CCCN1C(=O)[C@H](CCSC)NC(=O)[C@H](CCCN=C(N)N)NC(=O)[C@@H]1CCCN1C(=O)[C@H](CCCN=C(N)N)NC(=O)[C@@H]1CCCN1C(=O)[C@H](CC(C)C)NC(=O)[C@H](Cc1ccc(O)cc1)NC(=O)[C@@H]1CCCN1C(=O)[C@@H]1CCCN1C(=O)[C@H](CCCCN)NC(=O)[C@H](CC(=O)O)NC(=O)[C@@H](N)C(C)C)C(=O)N[C@@H](Cc1ccc(O)cc1)C(=O)N[C@@H](CC(N)=O)C(=O)N[C@@H](CCCN=C(N)N)C(=O)NCC(=O)O [VDKPPYLPRPRMPRRIYNRG]
MIC [7]: 0.0886 µM (≈ 0.22 µg/mL)

CC[C@H](C)[C@H](NC(=O)[C@H](CCCN=C(N)N)NC(=O)[C@H](CCCN=C(N)N)NC(=O)[C@@H]1CCCN1C(=O)[C@H](Cc1ccc(O)cc1)NC(=O)[C@H](CCCN=C(N)N)NC(=O)[C@@H]1CCCN1C(=O)[C@H](CCCN=C(N)N)NC(=O)[C@@H]1CCCN1C(=O)[C@H](CC(C)C)NC(=O)[C@H](Cc1ccc(O)cc1)NC(=O)[C@@H]1CCCN1C(=O)[C@@H]1CCCN1C(=O)[C@H](CCCCN)NC(=O)[C@H](CC(=O)O)NC(=O)[C@@H](N)C(C)C)C(=O)N[C@@H](Cc1ccc(O)cc1)C(=O)N[C@@H](CC(N)=O)C(=O)N[C@@H](CCCN=C(N)N)C(=O)NCC(=O)O [VDKPPYLPRPRYPRRIYNRG]
MIC [7]: 0.0597 µM (≈ 0.15 µg/mL)
